Measured values: ChEMBL document CHEMBL3243999, “Novel anxiolytic agents derived from alpha-amino-alpha-phenyl-o-tolyl-4H-triazoles and -imidazoles” (J Med Chem, 1978)

How the values were obtained:
Mus musculus [1] = test: Anticonvulsant activity in ip dosed CF-1 albino mouse assessed as antagonism of pentylenetetrazole-induced clonic convulsions; assay type: functional
Brain [2] = test: Drug metabolism in mouse brain assessed as unchanged drug level at 20 mg/kg, ip after 20 mins by GC-MS analysis; assay type: ADME, organism-based; parameters: dose 20 mg/kg, route intraperitoneal; details: in vivo
Brain [3] = test: Drug metabolism in mouse brain assessed as un-identified metabolite formation at 20 mg/kg, ip after 0.5 hrs by GLC-electron capture detection analysis; assay type: ADME, organism-based; parameters: dose 20 mg/kg, route intraperitoneal; details: in vivo
Mus musculus [4] = test: Anticonvulsant activity in ip dosed CF-1 albino mouse assessed as antagonism of nicotine-induced tonic extensor convulsions; assay type: functional
Mus musculus [5] = test: Muscle relaxing activity in ip dosed CF-1 albino mouse by chimney test; assay type: functional
Mus musculus [6] = test: Anxiolytic activity in ip dosed CF-1 albino mouse assessed as antagonism of electric shock-induced effect; assay type: functional; details: CF-1, ip
Mus musculus [7] = test: Sedative activity in ip dosed CF-1 albino mouse assessed as muscle relaxation by measuring depression of traction; assay type: functional
Mus musculus [8] = test: Anticonvulsant activity in ip dosed CF-1 albino mouse assessed as antagonism of thiosemicarbazide-induced lethality; assay type: functional; details: CF-1, ip
Mus musculus [9] = test: Anticonvulsant activity in ip dosed CF-1 albino mouse assessed as antagonism of nicotine-induced death; assay type: functional
Mus musculus [10] = test: Drug metabolism in mouse silylated blood assessed as triazolobenzodiazepine metabolite formation at 30 mg/kg, ip after 30 mins by GC-MS analysis; assay type: ADME, organism-based; parameters: dose 30 mg/kg, route intraperitoneal; details: in vivo, 0.5 h
Rattus norvegicus = test: Anticonvulsant activity in po dosed Sprague-Dawley rat assessed as antagonism of pentylenetetrazole-induced clonic convulsions; assay type: functional
Brain [11] = test: Drug metabolism in Sprague-Dawley rat brain assessed as triazolam metabolite formation at 20 mg/kg, ip after 0.5 hrs by GLC-electron capture detection analysis; assay type: ADME, organism-based; parameters: dose 20 mg/kg, route intraperitoneal; details: in vivo
[12] = Retention time of the compound by GLC-electron capture detection analysis; assay type: physicochemical
Mus musculus [13] = test: Muscle relaxing activity in ip dosed CF-1 albino mouse assessed as depression of dish reflexes; assay type: functional
Brain [14] = test: Drug metabolism in Sprague-Dawley rat brain assessed as unchanged drug level at 20 mg/kg, ip after 20 mins by GC-MS analysis; assay type: ADME, organism-based; parameters: dose 20 mg/kg, route intraperitoneal; details: in vivo
Mus musculus [15] = test: Anticonvulsant activity in po dosed CF-1 albino mouse assessed as antagonism of pentylenetetrazole-induced clonic convulsions; assay type: functional; details: CF-1, po
Brain [16] = test: Drug level in Sprague-Dawley rat brain treated with (5-chloro-2-(3,5-dimethyl-4H-1,2,4-triazol-4-yl)phenyl)(2-chlorophenyl)methanamine at 20 mg/kg, ip after 20 mins by GC-MS analysis; assay type: ADME, organism-based; parameters: dose 20 mg/kg, route intraperitoneal; details: in vivo
Brain [17] = test: Retention time of the compound in mouse brain treated with (5-chloro-2-(3,5-dimethyl-4H-1,2,4-triazol-4-yl)phenyl)(2-chlorophenyl)methanamine at 20 mg/kg, ip after 0.5 hrs by GLC-electron capture detection analysis; assay type: ADME, organism-based; parameters: dose 20 mg/kg, route intraperitoneal; details: in vivo
Brain [18] = test: Drug level in mouse brain treated with (5-chloro-2-(3,5-dimethyl-4H-1,2,4-triazol-4-yl)phenyl)(2-chlorophenyl)methanamine at 20 mg/kg, ip after 20 mins by GC-MS analysis; assay type: ADME, organism-based; parameters: dose 20 mg/kg, route intraperitoneal; details: in vivo
[19] = Mus musculus, CF-1, ip, read-out: ED50

Compound	ED50 (Mus musculus [1]; [19])	ED50 (Mus musculus [4]; [19])	ED50 (Mus musculus [5]; [19])	ED50 (Mus musculus [6])	ED50 (Mus musculus [7]; [19])	ED50 (Mus musculus [8])	ED50 (Mus musculus [9]; [19])	ED50 (Mus musculus [13]; [19])	further results
Cc1nnc(C)n1-c1ccc(Cl)cc1C(N)c1ccccc1 (stereo unspecified)	16 mg/kg	–	–	–	–	–	–	–	–
Cc1nnc(C)n1-c1ccc(Cl)cc1C(N)c1ccccc1Cl (stereo unspecified)	1.2 mg/kg	0.5 mg/kg	6.3 mg/kg	> 100 mg/kg	> 100 mg/kg	0.4 mg/kg	0.5 mg/kg	3.2 mg/kg	Drug metabolism (Brain [2]): 65 ng; Drug metabolism (Brain [3]): metabolite_detected; Drug metabolism (Mus musculus [10]): metabolite_detected; ED50 (Rattus norvegicus): > 50 mg/kg; Drug metabolism (Brain [11]): metabolite_notdetected; Retention_time [12]: 9 min; Drug metabolism (Brain [14]): 272 ng
CC(C)=NC(c1ccccc1Cl)c1cc(Cl)ccc1-n1c(C)nnc1C (stereo unspecified)	1.2 mg/kg	0.75 mg/kg	6 mg/kg	–	> 30 mg/kg	0.34 mg/kg	0.85 mg/kg	6.6 mg/kg	–
Cc1nnc(CN(C)C)n1-c1ccc(Cl)cc1C(N)c1ccccc1Cl (stereo unspecified)	0.2 mg/kg	0.25 mg/kg	0.71 mg/kg	40 mg/kg	1.4 mg/kg	0.09 mg/kg	0.18 mg/kg	0.56 mg/kg	ED50 (Mus musculus [15]): 0.6 mg/kg; ED50 (Rattus norvegicus): 4.4 mg/kg
CN/N=C/c1nnc(C)n1-c1ccc(Cl)cc1C(N)c1ccccc1Cl (stereo unspecified)	1.2 mg/kg	1.3 mg/kg	7 mg/kg	> 100 mg/kg	20 mg/kg	–	1.4 mg/kg	0.4 mg/kg	–
Cc1cn(-c2ccc(Cl)cc2C(N)c2ccccc2Cl)c(C)n1 (stereo unspecified)	–	3.6 mg/kg	> 100 mg/kg	> 100 mg/kg	> 100 mg/kg	1.8 mg/kg	3.6 mg/kg	20 mg/kg	–
Br.Cc1nccn1-c1ccc(Cl)cc1C(N)c1ccccc1 (stereo unspecified)	–	9 mg/kg	18 mg/kg	–	32 mg/kg	–	9 mg/kg	16 mg/kg	–
Cc1nnc(CN)n1-c1ccc(Cl)cc1Cc1ccccc1	12.5 mg/kg	7 mg/kg	18 mg/kg	–	25 mg/kg	–	6.2 mg/kg	14 mg/kg	–
Cc1nnc(CN(C)C)n1-c1ccc(Cl)cc1C(=O)c1ccccc1Cl	0.28 mg/kg	0.14 mg/kg	–	50 mg/kg	3.2 mg/kg	0.02 mg/kg	0.14 mg/kg	0.25 mg/kg	–
Cc1nnc(/C=N/N(C)C)n1-c1ccc(Cl)cc1C(N)c1ccccc1Cl (single isomer, unassigned)	–	–	–	–	–	–	–	–	ED50 (Mus musculus [4]): 4 mg/kg; ED50 (Mus musculus [5]): 16 mg/kg; ED50 (Mus musculus [1]): 5.6 mg/kg; ED50 (Mus musculus [7]): 50 mg/kg; ED50 (Mus musculus [9]): 4 mg/kg; ED50 (Mus musculus [13]): 7.1 mg/kg
Cc1nnc(C2CC2)n1-c1ccc(Cl)cc1C(N)c1ccccc1Cl (single isomer, unassigned; isomer 1)	40 mg/kg	2.3 mg/kg	40 mg/kg	–	> 50 mg/kg	–	2.3 mg/kg	–	ED50 (Mus musculus [13]): 4.5 mg/kg
Cc1nnc(CO)n1-c1ccc(Cl)cc1C(N)c1ccccc1Cl (single isomer, unassigned; isomer 1)	1.2 mg/kg	0.4 mg/kg	0.63 mg/kg	–	16 mg/kg	–	0.5 mg/kg	–	ED50 (Mus musculus [15]): 6.2 mg/kg; ED50 (Rattus norvegicus): > 50 mg/kg; ED50 (Mus musculus [13]): 1.1 mg/kg
Cc1nnc(/C=N/N(C)C)n1-c1ccc(Cl)cc1C(N)c1ccccc1Cl (single isomer, unassigned; isomer 1)	8.9 mg/kg	5.6 mg/kg	22 mg/kg	> 100 mg/kg	71 mg/kg	–	8 mg/kg	11.2 mg/kg	–
Cc1nnc(CO)n1-c1ccc(Cl)cc1C(N)c1ccccc1Cl (single isomer, unassigned; isomer 2)	–	–	–	–	–	–	–	–	ED50 (Mus musculus [4]): 0.3 mg/kg; ED50 (Mus musculus [5]): 0.5 mg/kg; ED50 (Mus musculus [1]): 1 mg/kg; ED50 (Mus musculus [7]): 8 mg/kg; ED50 (Mus musculus [9]): 0.3 mg/kg; ED50 (Mus musculus [13]): 3.5 mg/kg
Cc1nnc(C2CC2)n1-c1ccc(Cl)cc1C(N)c1ccccc1Cl (stereo in doubt; 21b)	–	–	–	–	–	–	–	–	ED50 (Mus musculus [4]): 2.8 mg/kg; ED50 (Mus musculus [5]): 56 mg/kg; ED50 (Mus musculus [1]): >50 mg/kg; ED50 (Mus musculus [7]): >100 mg/kg; ED50 (Mus musculus [9]): 2 mg/kg; ED50 (Mus musculus [13]): 40 mg/kg
Cc1nnc2n1-c1ccc(Cl)cc1C(c1ccccc1)=NC2 [ALPRAZOLAM]	–	–	–	–	–	–	–	–	Retention_time [12]: 12 min
CN1C(=O)CN=C(c2ccccc2)c2cc(Cl)ccc21 [DIAZEPAM]	0.8 mg/kg	0.11 mg/kg	–	20 mg/kg	5 mg/kg	0.2 mg/kg	0.11 mg/kg	0.31 mg/kg	ED50 (Rattus norvegicus): 4.8 mg/kg
Cc1nnc2n1-c1ccc(Cl)cc1C(c1ccccc1Cl)=NC2 [TRIAZOLAM]	0.04 mg/kg	0.04 mg/kg	0.056 mg/kg	23 mg/kg	0.7 mg/kg	0.028 mg/kg	0.04 mg/kg	0.1 mg/kg	Drug metabolism (Brain [16]): 4 ng; ED50 (Rattus norvegicus): 0.18 mg/kg; Retention_time (Brain [17]): 15 min; Retention_time [12]: 15 min; Drug metabolism (Brain [18]): 190 ng
